Laboratory results published in ChEMBL document CHEMBL1201862, “PubChem BioAssay data set” (2004).
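Tested at 5 concentrations; 48 h exposure; 96-well plates; endpoints linearly interpolated, else capped at highest concentration. The concentration for 50% growth inhibition is given as GI50.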 Calls of active or inactive are those of the source. No stated cut-off is given here; in the data, active = GI50 up to about 1.1 µM and inactive = higher.

Legend:
Assay in all cases: NCI anticancer screen, dose series, 48 h
MDA-MB-231 = tested on: MDA-MB-231
TK-10 = tested on: TK-10
LOX IMVI = tested on: LOX IMVI
K562 = tested on: K562
SF-295 = tested on: SF-295
SK-MEL-28 = tested on: SK-MEL-28
OVCAR-4 = tested on: OVCAR-4
M14 = tested on: M14
DU-145 = tested on: DU-145
NCI-H522 = tested on: NCI-H522
HL-60 = tested on: HL-60
MDA-MB-435 = tested on: MDA-MB-435
SW-620 = tested on: SW-620
MDA-N = tested on: MDA-N
CAKI-1 = tested on: CAKI-1
ACHN = tested on: ACHN
Hs-578T = tested on: Hs-578T
SF-268 = tested on: SF-268

Measured: GI50

O=C(NNCC(O)COc1ccccc1)c1ccccc1 (stereo not drawn)
inactive: MDA-MB-231 > 100 µM | TK-10 > 100 µM | LOX IMVI > 100 µM | K562 > 100 µM | SF-295 > 100 µM | SK-MEL-28 > 100 µM | OVCAR-4 > 100 µM | M14 > 100 µM | DU-145 > 100 µM | NCI-H522 > 100 µM | HL-60 > 100 µM | MDA-MB-435 > 100 µM | SW-620 > 100 µM | MDA-N > 100 µM | CAKI-1 > 100 µM | ACHN > 100 µM

O=C1NC2c3c(I)sc(I)c3C(O)C2O1 (stereo not drawn)
inactive: MDA-MB-231 > 100 µM | Hs-578T > 100 µM | TK-10 > 100 µM | LOX IMVI > 100 µM | K562 > 100 µM | SF-268 > 100 µM | SF-295 > 100 µM | SK-MEL-28 > 100 µM | OVCAR-4 > 100 µM | M14 > 100 µM | DU-145 > 100 µM | HL-60 > 100 µM | MDA-MB-435 > 100 µM | SW-620 > 100 µM | MDA-N > 100 µM | CAKI-1 > 100 µM | ACHN > 100 µM

CCCNc1ncnc2c1ncn2C
inactive: MDA-MB-231 67.1 µM | TK-10 > 100 µM | LOX IMVI 31 µM | K562 53.1 µM | SF-295 40.6 µM | SK-MEL-28 > 100 µM | OVCAR-4 > 100 µM | M14 58.5 µM | DU-145 85.3 µM | NCI-H522 41.8 µM | HL-60 32.9 µM | MDA-MB-435 > 100 µM | SW-620 94.4 µM | MDA-N > 100 µM | CAKI-1 36.1 µM | ACHN 51.6 µM

CCOC(=O)CCC(C(=O)OCC)n1nc2ccc(Nc3c(C)[n+]([O-])c4cc(F)c(OCC)cc4[n+]3[O-])cc2n1 (stereo not drawn)
inactive: Hs-578T 26.2 µM | TK-10 42.7 µM | LOX IMVI > 100 µM | K562 > 100 µM | SF-268 14 µM | SF-295 36.1 µM | OVCAR-4 47.6 µM | M14 > 100 µM | DU-145 > 100 µM | NCI-H522 30.8 µM | HL-60 > 100 µM | MDA-MB-435 > 100 µM | SW-620 > 100 µM | MDA-N > 100 µM | CAKI-1 > 100 µM | ACHN 40.2 µM

COC(=O)c1ccccc1C#CCCCOS(C)(=O)=O
inactive: MDA-MB-231 > 10 µM | Hs-578T > 10 µM | TK-10 > 10 µM | LOX IMVI > 10 µM | K562 > 10 µM | SF-268 > 10 µM | SF-295 > 10 µM | SK-MEL-28 > 10 µM | OVCAR-4 > 10 µM | M14 > 10 µM | DU-145 > 10 µM | HL-60 > 10 µM | MDA-MB-435 > 10 µM | SW-620 > 10 µM | MDA-N > 10 µM | CAKI-1 > 10 µM | ACHN > 10 µM

O=S(=O)(c1ccccc1)c1ccc(-c2nc(-c3ccc4c(c3)Sc3ccccc3S4)cs2)cc1
inactive: MDA-MB-231 20.5 µM | Hs-578T 8.69 µM | TK-10 22.1 µM | LOX IMVI > 100 µM | K562 69 µM | SF-268 26.7 µM | SF-295 16.5 µM | OVCAR-4 > 100 µM | M14 36.1 µM | DU-145 > 100 µM | HL-60 > 100 µM | MDA-MB-435 > 100 µM | SW-620 > 100 µM | CAKI-1 > 100 µM | ACHN 38.7 µM

O=C1CC(=O)n2cnc3cccc(c32)N1
inactive: MDA-MB-231 > 100 µM | Hs-578T > 100 µM | K562 > 100 µM | SF-268 > 100 µM | SF-295 > 100 µM | SK-MEL-28 > 100 µM | OVCAR-4 > 100 µM | M14 > 100 µM | DU-145 > 100 µM | HL-60 > 100 µM | MDA-MB-435 > 100 µM | SW-620 > 100 µM | MDA-N > 100 µM | CAKI-1 > 100 µM

COc1ccc(C2c3cc4c(cc3C(O)C3CCC(=O)N23)OCO4)cc1 (stereo not drawn)
inactive: Hs-578T > 100 µM | TK-10 > 100 µM | LOX IMVI > 100 µM | K562 > 100 µM | SF-268 > 100 µM | SF-295 > 100 µM | SK-MEL-28 > 100 µM | OVCAR-4 > 100 µM | M14 > 100 µM | DU-145 > 100 µM | NCI-H522 > 100 µM | HL-60 > 100 µM | MDA-MB-435 > 100 µM | SW-620 > 100 µM | MDA-N > 100 µM | CAKI-1 > 100 µM | ACHN > 100 µM
